“Also recorded” adds a separate entry of the source. Where a name gives a salt, the structure may show the parent alone.
Key:
RT4 = RT4 dose response / cell survival (WST assay); type: cell-based; details: EGF
Protocol: (§1) Cell-proliferation assay. […] The cells were incubated for 60 h.
(§2) Time at 0 hours represents the level of expression without TKI+/−GF. Note that the growth factors induce higher expression of c-FOS in all cell lines and DUSP1 in RT4 at 0 hours, while the addition of both TKI and growth factors induced both c-FOS and DUSP1. […] Note inhibition of c-FOS and DUSP1 is sufficient to kill AU565 cells, while their inhibition in RT4 and SKMEL28 cells restored the TKI sensitivity in the presence of growth factors.

AU565 = AU565 dose response / cell survival (WST assay); type: cell-based; details: neuregulin 1-NRG1
Protocol: as §1, §2

[1] = tested on: CML patient cells (CP1, CP4); assay: LTC-IC assay, CML patient samples; type: cell-based, human
Protocol: LTC-IC assay. The LTC-IC assay was performed according to the instruction manual of StemCell Technologies. […] After 24 h, the cells were washed in human long-term culture medium (HLTM; MyeloCult H5100 media containing 1 μM hydrocortisone) and were plated on irradiated MS-5 stromal cells. Cultures were maintained for 5 weeks with weekly half-medium changes. Cells were then harvested, counted, and transferred to methylcellulose-containing media (MethoCult Express, StemCell Technologies) for colony-forming assays. At the end of week 5, adherent and nonadherent cells were isolated and plated in methylcellulose (METHOCULT H4434 classic, stem cell technology) for CFU analysis in triplicate. Plates were incubated at 37° C., and colonies were scored 2 weeks after plating.

K562 = assay: Survival of K562 cells treated with imatinib with or without erythropoietin; type: cell-based, human; details: erythropoietin treatment
[2] = tested on: Fos, Dusp1, and Zfp36 expression; assay: Real-time qPCR of Fos, Dusp1 and Zfp36 in BaF3-BA cells; type: cell-based, mouse
Protocol: Real-time qPCR analysis. Candidate genes picked by microarray analysis were validated by real time qPCR. Total RNA was isolated as described above. The RNA was first subjected to DNase treatment using DNA-free DNase kit (Ambion, Life technologies). 2 μg of total RNA was converted to cDNA with Superscript III first-strand synthesis kit (Life technologies). qPCR reactions were performed with the human gene-specific primers using the SYBR green method and using a Mastercycler RealPlex2 instrument (Eppendorf). All PCR reactions were performed in triplicate and the real-time data was normalized to β-actin expression.

[3] = tested on: CML CD34+ cells from patient CP4; assay: Mouse model of CML with patient-derived CD34+ cells; type: in vivo, human; details: treatment for 3 weeks; imatinib 75 mg/kg, DFC and BCI 10 mg/kg twice daily i.p.
Protocol: To extend these findings to human cells, we tested the effect of c-FOS and DUSP1 inhibition on the survival of primary CML patient samples (Table 2).
Mouse models of CML with patient-derived cells. 3 million CD34+ cells from CML patient CP4 (described in Table 1) were transplanted into sublethally irradiated 8-week-old NSG mice. 2 weeks after transplantation, leukemic engraftment in bone marrow was determined by FACS using mouse and human specific antibodies against CD45. […] Drugs were diluted in PBS (vehicle) and administered by intraperitoneal injection twice daily. […]

[4] = mouse, in vivo; cited from earlier work
SKMEL28 = SKMEL28 dose response / cell survival (WST assay); type: cell-based; details: HGF
Protocol: as §1, §2

BaF3-BA cells = assay: Cell proliferation/survival assay of BaF3 cells expressing BCR-ABL (WST-1); type: cell-based, mouse; details: inhibitor 500 nM
phospho-p38 = assay: Pharmacodynamic phospho-p38 analysis in leukemic mice; type: in vivo, mouse; details: peripheral blood mononuclear cells, 6 h after BCI 10 mg/kg i.p.
Protocol: Pharmacodynamic analysis of Dusp1 and c-Fos targets. Phospho-p38 analysis. Three leukemic mice (8-12 weeks old), which had received transplants of BCR-ABL-expressing Kit+ cells, were injected with BCI (10 mg/kg) by intraperitoneal injection 4 weeks after transplantation. Phospho-p38 levels were quantified in peripheral blood MNCs using the Phosflow kit (BD Biosciences), according to the supplier's instructions. In brief, blood was collected from each mouse before and 6 hours after drug injection. Mononuclear cells were isolated by RBC depletion: RBCs were lysed twice using 4 ml Pharmlyse solution (BD Biosciences) per 100 μl of peripheral blood by mixing and incubated on ice for 5 min. After the second lysis step, cell pellets were washed with 1 ml 2% BSA in PBS followed by fixation using 100 μl of fixation and permeabilization solutions (BD Biosciences) for 20 min at 4° C. in the dark. The pellets were washed with 1 ml of 1×BD Perm/wash buffer. After fixation, the cells were blocked using 300 μl 2% BSA in Perm/wash buffer (BD Biosciences) at room temperature for 20 min. […] Data were acquired by FACS on Fortessa instrument, and the data were analyzed by FlowJo software. The mean fluorescence intensity (MFI) of the IgG control was deducted from the MFI of the experimental samples. […] Quantitative gene-expression analysis of target genes. […]

Dusp1 = assay: In vitro BCI-resistance screening of randomly mutagenized Dusp1 in BaF3-BA cells; type: cell-based, mouse
Protocol: To determine the relevant target of BCI more conclusively, we performed in vitro drug-resistant screening to select for BCI-resistant mutations in Dusp1. BaF3-BA cells transfected with an expression library of randomly mutagenized Dusp1 construct were used for the selection of mutations conferring resistance to different concentrations of BCI (FIG. 19D). […] 27 clones that emerged in 1.5 μM of BCI were randomly selected and further analyzed. Dose-response analysis confirmed their resistance to BCI (FIG. 19F). Sequencing of the Dusp1 gene in these clones identified four different substitution mutations (E19R, C24G, V83G, and E112R) and two deletion mutations at the N terminus (Δ2-8 and Δ2-28; FIG. 19G). Because most resistant clones carried two or more mutations, we generated clones with individual mutations for further analysis. […] Furthermore, an unbiased docking of BCI using a structural model of the Dusp1 rhodanese domain identified the putative site to which BCI binds, with a predicted free energy of ΔG=−7.63 (FIG. 18E).
Random mutagenesis and screening of Dusp1 mutants. A Gateway entry clone containing mouse Dusp1 complementary DNA was purchased from the Harvard PalsmiD repository (cat. #MmCD00312825). The Dusp1 coding region was transferred into the retroviral gateway vector pMSCV-Ires-GFP.GW59 by recombination cloning. […] Mutants isolated in the screen were engineered into the pMSCV-Dusp1-Ires-GFP vector, using the QuikChange II XL Site-Directed Mutagenesis Kit (Agilent). The sequence of each point mutation was confirmed by sequence analysis.

phospho-p38, p-JNK = assay: Immunoblot of MAPK signaling in BaF3 and BaF3-BA cells; type: cell-based, mouse; details: with or without IL-3
Protocol: Western blotting. 4-6 million cells were collected, and whole-cell extracts were prepared using lysis buffer supplemented with a protease-inhibitor cocktail (Roche) and phosphatase-inhibitor cocktail 2 (Sigma-Aldrich), as described previously (Azam, M., Seeliger, M. A., Gray, N. S., Kuriyan, J. & Daley, G. Q. Activation of tyrosine kinases by mutation of the gatekeeper threonine. Nat. Struct. Mol. Biol. 15, 1109-1118 (2008)). The proteins were resolved on 10% SDS-PAGE gels and transferred to nitrocellulose membranes (Bio-Rad). Membranes were blocked in TBST with 5% nonfat milk and probed with appropriate antibodies as indicated. Densitometry was carried out using ImageJ software.

HCC827 cells = assay: HCC827 cell survival (WST assay); details: DFC, BCI and erlotinib alone and in combination
EGFR = details: NSCLC patients with activating EGFR mutations; cited from earlier work

CS(=O)(=O)CCNCc1ccc(-c2ccc3ncnc(Nc4ccc(OCc5cccc(F)c5)c(Cl)c4)c3c2)o1 [lapatinib]
response to lapatinib in the presence of growth factor (RT4): resistance
response to lapatinib in the presence of growth factor (AU565): resistance

Cc1ccc(NC(=O)c2ccc(CN3CCN(C)CC3)cc2)cc1Nc1nccc(-c2cccnc2)n1 [Imatinib, Imatinib mesylate]
LTC-IC activity as compared to vehicle ([1]; CP1 cells): increased
LTC-IC activity as compared to vehicle ([1]; sample CP4): significant decrease
response to imatinib with erythropoietin (K562): conferred imatinib resistance
expression of Fos, Dusp1 and Zfp36 ([2]; imatinib alone): downregulated
higher expression of Fos, Dusp1 and Zfp36 as compared to BaF3-BA plus imatinib ([2]; imatinib plus growth factor (IL-3)): 4-5 fold
effect on human leukemic cells in bone marrow [3]: ineffective

COc1cc(/C=C/C(=O)C(=Cc2ccc(F)c(F)c2)C(=O)/C=C/c2ccc(O)c(OC)c2)ccc1O [DFC, difluorinated curcumin]
pharmacokinetics relative to curcumin [4]: superior pharmacokinetics

CCCS(=O)(=O)Nc1ccc(F)c(C(=O)c2c[nH]c3ncc(Cl)cc23)c1F [PLX4720]
response to PLX4720 in the presence of growth factor (SKMEL28): resistance

Oc1ccc(-c2nc(-c3ccncc3)c(-c3ccc(F)cc3)[nH]2)cc1 [SB202190]
imatinib resistance conferred by inhibitor (BaF3-BA cells): conferred imatinib resistance

O=C1/C(=C/c2ccccc2)C(NC2CCCCC2)c2ccccc21 (stereo not shown) [BCI, (E)-2-benzylidene-3-(cyclohexylamino)-2,3-dihydro-1H-inden-1-one]
increase in phospho-p38 levels (phospho-p38): 4-8 fold
frequency of resistant clones (Dusp1; 1 μM BCI): 1,200 clones per million cells
frequency of resistant clones (Dusp1; 1.5 μM BCI): 27 clones per million cells
frequency of resistant clones (Dusp1; 2 μM of BCI): did not yield any resistant clones
phospho-JNK (phospho-p38, p-JNK; BaF3-BA cells): decreased
phospho-p38 levels (phospho-p38, p-JNK; BaF3 and BaF3-BA cells): enhanced; also recorded: increased
cell survival (HCC827 cells): sensitized the cells for erlotinib

C#Cc1cccc(Nc2ncnc3cc(OCCOC)c(OCCOC)cc23)c1 [erlotinib]
response rate (EGFR): approximately 70%

— patent publication US10342767B2, “Therapy for kinase-dependent malignancies” (CHILDREN'S HOSPITAL MEDICAL CENTER, priority 2011, dated 2019)
